According to PubChem BioAssay (NCI):
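Values below derive from 48-hour exposures of cells grown in 96-well plates, with endpoints linearly interpolated between the two concentrations bracketing the appropriate inhibition level. GI50 is the concentration that inhibits growth by half. TGI denotes the concentration required for complete inhibition of growth.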

How the values were obtained:
Experiment in all cases: NCI tumour cell line growth inhibition, 48 h
[1] = test system: 786-0 renal
[2] = test system: A498 renal
[3] = test system: A549 NSCLC
[4] = test system: ACHN renal
[5] = test system: BT-549 breast
[6] = test system: CAKI-1 renal
[7] = test system: CCRF-CEM leukemia
[8] = test system: COLO 205 colon
[9] = test system: DU-145 prostate
[10] = test system: EKVX NSCLC
[11] = test system: HCC-2998 colon
[12] = test system: HCT-116 colon
[13] = test system: HCT-15 colon
[14] = test system: HL-60(TB) leukemia
[15] = test system: HOP-62 NSCLC
[16] = test system: HOP-92 NSCLC
[17] = test system: HS 578T breast
[18] = test system: HT29 colon
[19] = test system: IGROV1 ovarian
[20] = test system: K-562 leukemia
[21] = test system: KM12 colon
[22] = test system: LOX IMVI melanoma
[23] = test system: M14 melanoma
[24] = test system: MALME-3M melanoma
[25] = test system: MCF7 breast
[26] = test system: MDA-MB-231 breast
[27] = test system: MDA-MB-435
[28] = test system: MOLT-4 leukemia
[29] = test system: NCI-H226 lung
[30] = test system: NCI-H23 lung
[31] = test system: NCI-H460 lung
[32] = test system: NCI-H522 lung
[33] = test system: NCI/ADR-RES ovarian
[34] = test system: OVCAR-4 ovarian
[35] = test system: OVCAR-5 ovarian
[36] = test system: OVCAR-8 ovarian
[37] = test system: PC-3 prostate
[38] = test system: RPMI-8226 leukemia
[39] = test system: RXF 393 renal
[40] = test system: SF-268 CNS
[41] = test system: SF-295 CNS
[42] = test system: SF-539 CNS
[43] = test system: SK-MEL-2 melanoma
[44] = test system: SK-MEL-28 melanoma
[45] = test system: SK-MEL-5 melanoma
[46] = test system: SK-OV-3 ovarian
[47] = test system: SN12C renal
[48] = test system: SNB-19 CNS
[49] = test system: SNB-75 CNS
[50] = test system: SR leukemia
[51] = test system: SW-620 colon
[52] = test system: T-47D breast
[53] = test system: TK-10 renal
[54] = test system: U251 CNS
[55] = test system: UACC-257 melanoma
[56] = test system: UACC-62 melanoma
[57] = test system: UO-31 renal

Structure (SMILES): Fc1ccc(-c2cc3nc(C(Cl)Cl)nc(-c4ccco4)n3n2)cc1
- GI50 [1]: 2.77 µM
- TGI [1]: 27.5 µM
- GI50 [2]: 1.21 µM
- TGI [2]: 2.62 µM
- GI50 [3]: 0.77 µM
- TGI [3]: 5.37 µM
- GI50 [4]: 0.296 µM
- TGI [4]: 1.34 µM
- GI50 [5]: 35.3 µM
- TGI [5]: > 100 µM
- GI50 [6]: 0.948 µM
- TGI [6]: 4.36 µM
- GI50 [7]: > 100 µM
- TGI [7]: > 100 µM
- GI50 [8]: 0.624 µM
- TGI [8]: 2.48 µM
- GI50 [9]: 0.303 µM
- TGI [9]: 0.954 µM
- GI50 [10]: 1.28 µM
- TGI [10]: 4.86 µM
- GI50 [11]: 0.4 µM
- TGI [11]: 1.65 µM
- GI50 [12]: 0.31 µM
- TGI [12]: 1.1 µM
- GI50 [13]: 0.486 µM
- TGI [13]: 16.4 µM
- GI50 [14]: 0.3 µM
- GI50 [15]: 0.504 µM
- TGI [15]: 2.84 µM
- GI50 [16]: 0.541 µM
- TGI [16]: 3.37 µM
- GI50 [17]: 1.45 µM
- TGI [17]: 4.91 µM
- GI50 [18]: 0.312 µM
- TGI [18]: 1.71 µM
- GI50 [19]: 11.6 µM
- TGI [19]: > 100 µM
- GI50 [20]: 1.79 µM
- TGI [20]: > 100 µM
- GI50 [21]: 0.877 µM
- TGI [21]: 3.66 µM
- GI50 [22]: > 100 µM
- TGI [22]: > 100 µM
- GI50 [23]: > 100 µM
- TGI [23]: > 100 µM
- GI50 [24]: > 100 µM
- TGI [24]: > 100 µM
- GI50 [25]: 0.273 µM
- TGI [25]: 3.24 µM
- GI50 [26]: 0.368 µM
- TGI [26]: 2.33 µM
- GI50 [27]: 1.54 µM
- TGI [27]: 6.82 µM
- GI50 [28]: > 47.4 µM
- TGI [28]: > 100 µM
- GI50 [29]: > 89.5 µM
- TGI [29]: > 100 µM
- GI50 [30]: 2.44 µM
- TGI [30]: > 58 µM
- GI50 [31]: 0.217 µM
- TGI [31]: 0.533 µM
- GI50 [32]: > 87.9 µM
- TGI [32]: > 100 µM
- GI50 [33]: 0.562 µM
- TGI [33]: 6.04 µM
- GI50 [34]: 2.62 µM
- TGI [34]: 17.5 µM
- GI50 [35]: 1.32 µM
- TGI [35]: 6.7 µM
- GI50 [36]: 0.809 µM
- TGI [36]: > 100 µM
- GI50 [37]: 0.727 µM
- TGI [37]: 3.88 µM
- GI50 [38]: 0.481 µM
- TGI [38]: 4.03 µM
- GI50 [39]: 0.413 µM
- TGI [39]: 2.51 µM
- GI50 [40]: 1.24 µM
- TGI [40]: 8.16 µM
- GI50 [41]: 0.663 µM
- TGI [41]: 4.08 µM
- GI50 [42]: 0.832 µM
- TGI [42]: 3.71 µM
- GI50 [43]: 5.36 µM
- TGI [43]: 20.4 µM
- GI50 [44]: 2.46 µM
- TGI [44]: 6.46 µM
- GI50 [45]: > 100 µM
- TGI [45]: > 100 µM
- GI50 [46]: 2.88 µM
- TGI [46]: > 49.4 µM
- GI50 [47]: > 100 µM
- TGI [47]: > 100 µM
- GI50 [48]: 0.541 µM
- TGI [48]: 5.81 µM
- GI50 [49]: 0.638 µM
- TGI [49]: 3.99 µM
- GI50 [50]: 17.8 µM
- TGI [50]: > 100 µM
- GI50 [51]: 0.402 µM
- TGI [51]: 3.55 µM
- GI50 [52]: 1.01 µM
- TGI [52]: 6.71 µM
- GI50 [53]: 3.54 µM
- TGI [53]: 7.5 µM
- GI50 [54]: 0.309 µM
- TGI [54]: 2.7 µM
- GI50 [55]: 3.53 µM
- TGI [55]: 19.6 µM
- GI50 [56]: 3.61 µM
- TGI [56]: > 53.8 µM
- GI50 [57]: 1.32 µM
- TGI [57]: 5.78 µM
